Measurements from paper PMC6957263 (Bioorganic & medicinal chemistry letters, 2013).

How the values were obtained:
[1] = target: T1, human TRPV1 heterologously expressed in CHO cells (Homo sapiens, UniProt Q8NER1); assay: functional 45Ca2+ uptake assay; assay type: cell-based
[2] = target: T1, human TRPV1 heterologously expressed in CHO cells; assay: binding competition assay with [3H]RTX; conditions: for fold greater potency than the racemate in binding affinity: 2R vs 2, 3R vs 3; for fold less potent than the racemate in binding affinity: 2S vs 2, 3S vs 3
[3] = human TRPV1, within ca. x-fold of RTX

T1 sequence (Q8NER1 whole entry): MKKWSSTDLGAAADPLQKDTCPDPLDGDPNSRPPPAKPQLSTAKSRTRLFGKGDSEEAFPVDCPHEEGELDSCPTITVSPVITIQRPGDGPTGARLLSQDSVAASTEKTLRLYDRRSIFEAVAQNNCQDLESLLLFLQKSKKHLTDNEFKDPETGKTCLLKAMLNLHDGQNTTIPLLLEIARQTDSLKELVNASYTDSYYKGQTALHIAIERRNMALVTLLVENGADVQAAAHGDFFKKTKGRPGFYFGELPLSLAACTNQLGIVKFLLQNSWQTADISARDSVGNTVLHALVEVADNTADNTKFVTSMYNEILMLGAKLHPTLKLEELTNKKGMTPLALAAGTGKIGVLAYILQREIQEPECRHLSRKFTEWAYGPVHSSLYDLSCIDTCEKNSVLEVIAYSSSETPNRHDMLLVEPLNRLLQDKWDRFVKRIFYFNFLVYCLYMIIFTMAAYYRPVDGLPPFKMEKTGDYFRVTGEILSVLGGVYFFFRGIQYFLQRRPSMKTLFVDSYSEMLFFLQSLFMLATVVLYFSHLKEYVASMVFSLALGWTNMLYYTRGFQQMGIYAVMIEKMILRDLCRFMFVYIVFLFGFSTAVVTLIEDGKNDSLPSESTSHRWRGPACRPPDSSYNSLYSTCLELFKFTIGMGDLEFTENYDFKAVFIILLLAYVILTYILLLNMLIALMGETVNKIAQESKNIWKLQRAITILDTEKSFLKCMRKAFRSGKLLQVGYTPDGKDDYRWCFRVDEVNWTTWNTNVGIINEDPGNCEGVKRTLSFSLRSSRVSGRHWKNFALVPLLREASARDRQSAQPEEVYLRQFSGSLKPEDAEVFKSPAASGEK

## COc1cc(CNC(=S)NC[C@H](COC(=O)C(C)(C)C)Cc2ccc(C(C)(C)C)cc2)ccc1O [Compound 2R]
[1]; hTRPV1
  fold greater potency than the racemate 2 in agonism: 1.5 fold
[2]; hTRPV1
  fold greater potency than the racemate in binding affinity: 2 fold

## COc1cc(CNC(=S)NC[C@@H](COC(=O)C(C)(C)C)Cc2ccc(C(C)(C)C)cc2)ccc1O [Compound 2S]
[1]; hTRPV1
  fold less potent than 2 in agonism: 7 fold
[2]; hTRPV1
  fold less potent than the racemate in binding affinity: 1.1 fold

## COc1cc(CNC(=S)NCC(COC(=O)C(C)(C)C)Cc2ccc(C(C)(C)C)cc2)ccc1O (stereo not drawn) [Compound 2]
[1]; [3]
  fold of the potency of RTX in agonism: ~1.5 fold
[2]; [3]
  fold of the potency of RTX in binding affinity: ca. 5 fold

## CC(C)(C)C(=O)OC[C@@H](CNC(=S)NCc1ccc(NS(C)(=O)=O)c(F)c1)Cc1ccc(C(C)(C)C)cc1 [Compound 3R]
[1]; hTRPV1
  fold greater potency than 3 in antagonism: 1.3 fold
[2]; hTRPV1
  fold greater potency than the racemate in binding affinity: 1.3 fold

## CC(C)(C)C(=O)OC[C@H](CNC(=S)NCc1ccc(NS(C)(=O)=O)c(F)c1)Cc1ccc(C(C)(C)C)cc1 [Compound 3S]
[1]; hTRPV1
  fold less potency compared to 3 in antagonism: 1.3 fold
[2]; hTRPV1
  fold less potent than the racemate in binding affinity: 3 fold

## CC(C)(C)C(=O)OCC(CNC(=S)NCc1ccc(NS(C)(=O)=O)c(F)c1)Cc1ccc(C(C)(C)C)cc1 (stereo not drawn) [Compound 3]
[1]; hTRPV1
  fold less potent than I-RTX in antagonism: ~20 fold
[2]; hTRPV1
  fold less potent than I-RTX in binding affinity: ca. 2 fold
